Holding throughout (assay type): cell-based, human
The subject of experiment [1] is MCF10A mammary epithelial cells. As to the kind of experiment: scratch wound haptotaxis induced by clustering the α6β4 integrin. The note with it: α6β4 integrin clustered. How it is done: FIG. 9. Sdc1 ectodomain fragments and β4 dominant-negative mutant specific for Sdc1/α6β4/HER2 block MCF10A mammary epithelial cell migration. Haptotaxis of MCF10A human mammary epithelial cells induced by clustering the α6β4 integrin in a scratch wound assay is used to test the efficacy of inhibitors that target the Sdc1 mechanism. Cells are incubated either with entire recombinant syndecan ectodomains (Sdc1 ectodomain (S1ED) or Sdc4 ectodomain (S4ED) as a control), or an active fragment of mouse S1ED (S1ED^200-252) containing the inhibitory site.
(§1) HaCat or MCF10A cells were grown to confluence on 48 well-plates were starved for 6 hr by serum deprivation followed by introduction of a scratch wound in the monolayer using 200 μl pipette tip. Cells were cultured an additional 18 hr in DMEM containing mAb 3E1 (10 μg/ml) and goat anti-mouse IgG (50 μg/ml), EGF (10 ng/ml) or HGF (20 ng/ml) to cause cell migration in the presence or absence of inhibitors. Images were acquired using a PlanApo 20 (0.75 numerical aperture) objective and a Photometrics CoolSnap ES camera on a Nikon Eclipse TE2000U microscopy system and wound closure quantified.
The inventor used this assay to further truncate the S1ED recombinant proteins in order to find the smallest peptide that retains full inhibitory activity (e.g., SSTNHER2). The inventor tested mouse and human S1ED and find that they compete equally. […]

Experiment [2] relates to HaCat keratinocytes. In words: scratch wound haptotaxis induced by LPA and clustering of α6β4 integrin. The note with it: LPA + α6β4 clustered with mAb 3E1 and secondary antibody, AG825 10 μM, Iressa 1 μM. The text has this:
FIG. 6A-D. Sdc1 is required for HER2/α6β4-dependent HaCat keratinocyte migration. (FIG. 6A) HaCat keratinocytes deposit laminin 332 (LN332) and migrate upon this using α3β1 and α6β4 integrins to close a scratch wound in the monolayer when stimulated to undergo chemotaxis in response to EGF. Alternatively, migration is induced by clustering the integrin (using mAb 3E1 against the integrin+a secondary antibody to cluster the first antibody and thus the entire complex) in the presence of LPA. This mimics the clustering that occurs when the cells engage LN332 and is referred to as haptotaxis. […] (FIG. 6B) Haptotaxis, stimulated by LPA and clustering of α6β4 integrin as described in FIG. 6A, is blocked by antibody directed against the α3β1 integrin or by BM165 which targets the binding site for α3β1 in LN332. […] (FIG. 6C) The potential roles of Sdc1 or Sdc4 in haptotaxis is tested by silencing their expression, together with attempting to rescue with either wild-type mouse Sdc1 or Sdc4, or mouse mutants unable to engage the β4 cytoplasmic domain (mSdc1ΔC2 or mSdc4ΔC2). Haptotaxis is blocked by silencing endogenous Sdc1, and this cannot be rescued by Sdc1ΔC2 that fails to engage the α6β4 integrin. Silencing Sdc4 also disrupts migration, but this traces to its role in activity of the α3β1 integrin and not a role in engaging the α6β4 integrin, as it can be rescued by mSdc4ΔC2 that fails to associate with the α6β4 integrin. (FIG. 6D) Immunoprecipitation of either native mSdc4 or mSdc4[…]C2 confirms that the mSdc4ΔC2 mutant no longer associates with the α6β4 integrin, but does with the α3β1 integrin. […]
HaCat or MCF10A cells were grown to confluence on 48 well-plates were starved for 6 hr by serum deprivation followed by introduction of a scratch wound in the monolayer using 200 μl pipette tip. […] Images were acquired using a PlanApo 20 (0.75 numerical aperture) objective and a Photometrics CoolSnap ES camera on a Nikon Eclipse TE2000U microscopy system and wound closure quantified. […]

Experiment [3] has as its system HaCat keratinocytes or MCF10A mammary epithelial cells. As to the kind of experiment: competition of LPA-induced haptotactic migration by GST fusion proteins or synthetic peptides (FIG. 10 summary). The note with it: 0.1 to 30 μM, 3 μM LPA. As for the experimental part: FIGS. 10A-C. Schematic summary of experiments using either recombinant GST fusion proteins or synthetic peptides to disrupt Sdc1-dependent coupling of HER2 to α6β4 integrin necessary for LPA-induced haptotactic migration. GST-fusion proteins or synthetic peptides were added at concentrations ranging from 0.1 to 30 μM to the culture medium of human HaCat keratinocytes or MCF10A mammary epithelial cells in the presence or absence of 3 μM LPA. The ability of the constructs to inhibit the migration of the cells to close a scratch wound in confluent monolayers was determined and expressed as the concentration of inhibitor necessary to cause 50% inhibition of cell migration. (FIG. 10A) Competition using recombinant GST-fusion proteins. GST-Sdc1 fusion proteins bearing truncations or mutations were assessed for their competitive activity. […] (FIG. 10B) Competition with synthetic peptides. Peptides were purchased from commercial sources for testing as a putative synstatin inhibitory peptide (SSTNHER2). […] (FIG. 10C) Schematic representation of the active site in Sdc1. The active site is shown as a juxtamembrane site in the ectodomain of Sdc1. TM is the transmembrane domain and CYTO is the cytoplasmic domain. The sequence of a peptide derived from this site (SSTNHER2) is shown along with its homology across other mammalian Sdc1 species. The human STTNHER2 sequence is SEQ ID NO:23; the homology for STTNHER2 across mammals is SEQ ID NO:24.
as §1

As to “SSTNHER2: synthetic peptide of human Sdc1 ectodomain amino acids 210-240 (SEQ ID NO:3), inhibits Sdc1 coupling of HER2 to α6β4 integrin (DFTFETSGENTAVVAVEPDRRNQSPVDQGAT; listed as Homo sapiens)”, the “haptotaxis (migration to close a scratch wound)” value in experiment [1] and in experiment [2] was “blocks haptotaxis” throughout. Moreover, the “competitive (inhibitory) activity on haptotactic migration” value in experiment [3] is “fully active”.

The values are drawn from US10010581B2, “Syndecan peptides and polypeptides and uses thereof” (Wisconsin Alumni Research Foundation, priority 2012, dated 2018).
